Data as given in patent US7091038B2, “Ecdysone receptor-based inducible gene expression system” (RheoGene, Inc., priority 2000, dated 2006).

What was measured:
[1] = test system: CfVgRXR + MmRXR; experiment: Transactivation of reporter gene through switch 1.9 in 293 cells; assay type: cell-based, Choristoneura fumiferana; Mus musculus; conditions: switch 1.9, pIND(SP1)LacZ
Experimental: This example was prepared in the same way as switch 1.8 except DmEcR was replaced with a truncated CfEcR comprising a partial A/B domain and the complete CDEF domains [SEQ ID NO: 70 (polynucleotide) and SEQ ID NO: 71 (polypeptide)].
(§1) The cells were harvested and reporter activity was assayed.
(§2) The same procedures described for CHO were followed for 293 cells except that the cells were plated in biocoated plates to avoid clumping.
(§3) Cells were harvested 24–48 hr after adding ligands. […] Twenty μl of lysate was assayed.

[2] = test system: GAL4EcR + VP16USP; experiment: Transactivation of reporter gene through switch 1.2 in 293 cells; assay type: cell-based, Choristoneura fumiferana; conditions: switch 1.2, pGAL4RELuc
Experimental: (§4) This construct was prepared in the same way as in switch 1.1 above except MmRXRDEF was replaced with the D, E and F domains from spruce budworm USP (“CfUSPDEF”; SEQ ID NO: 67). The constructs used in this example are similar to those disclosed in U.S. Pat. No. 5,880,333 except that Choristoneura fumiferana USP rather than Drosophila melanogaster USP was utilized.
as §1, §2, §3

[3] = test system: GAL4EcR + VP16USP; experiment: Transactivation of reporter gene through switch 1.2 in CHO cells; assay type: cell-based, Choristoneura fumiferana; conditions: switch 1.2, pGAL4RELuc
Experimental: as §4, §1, §3

[4] = test system: GAL4USP + VP16CfEcR; experiment: Transactivation of reporter gene through switch 1.5 in CHO cells; assay type: cell-based, Choristoneura fumiferana; conditions: switch 1.5, pGAL4RELuc
Experimental: This construct was prepared in the same way as switch 1.3 except MmRXRDEF was replaced with CfUSPDEF (SEQ ID NO: 67).
as §1, §3

[5] = test system: VP16CfEcR; experiment: Transactivation of reporter gene through switch 1.7 in CV1 cells; assay type: cell-based, Choristoneura fumiferana; conditions: switch 1.7, pEcRELuc
Experimental: Six ecdysone response elements (“EcRE”; SEQ ID NO: 55) from the hsp27 gene were placed upstream of the promoter and a luciferase gene (SEQ ID NO: 66). This switch most probably uses endogenous RXR.
as §1
(§5) The cells were plated when they reached 50% confluency.
(§6) The same procedures described for NIH3T3 cells were followed for CV1 cells
as §3

[6] = target: DmVgRXR + MmRXR (Drosophila melanogaster, UniProt P34021, E282G/G283S/G286V); experiment: Transactivation of reporter gene through switch 1.8 in 293 cells; assay type: cell-based, Drosophila melanogaster; Mus musculus; set-up: host or cells: CHO, NIH3T3, 293 or CV1 cells; conditions: switch 1.8, pIND(SP1)LacZ
Description: This system was purchased from Invitrogen Corp., Carlsbad, California. It comprises a Drosophila melanogaster EcR (“DmEcR”) with a modified DNABD fused to VP16AD and placed under the control of a CMV promoter (SEQ ID NO: 68). Full length MmRXR (SEQ ID NO: 62) was placed under the control of the RSV promoter (SEQ ID NO: 69). The reporter, pIND(SP1)LacZ, contains five copies of a modified ecdysone response element (“EcRE”, E/GRE), three copies of an SPI enhancer, and a minimal heat shock promoter, all of which were placed upstream to the LacZ reporter gene.
as §1, §2, §3

[7] = test system: CfEcR; experiment: Transactivation through CfEcR- versus DmEcR-based switches in mammalian cell lines (Tables 1–4); set-up: species or system Choristoneura fumiferana
Experimental: as §3

[8] = test system: CfEcRDEF:MmRXRDEF; experiment: CfEcR-based yeast two-hybrid assay, LacZ reporter pSH118; assay type: cell-based, Choristoneura fumiferana; Mus musculus
Description: This construct results in a LexA:CfEcRDEF fusion that is expressed under the GAL1 promoter.
The D, E, and F domains from mouse (Mus musculus) RXR α (“MmRXRDEF”; SEQ ID NO: 22) were fused to a B42 transactivation domain (“B42AD”; SEQ ID NO: 53) and placed under the control of a GAL1 promoter (SEQ ID NO: 73) in pB42AD (CLONTECH). This construct results in a B42AD:MmRXR-DEF fusion that is expressed under the GAL 1 promoter.
A reporter plasmid comprising a β-galactosidase gene (LacZ; SEQ ID NO: 74) under the control of an 8XLexA operon response element (“8XlexAop”; SEQ ID NO: 75) operably linked to a minimal TATAA region from the GAL1 promoter (p8op-lacZ from CLONTECH) was used to monitor inducible gene expression.
Saccharomyces cerevisiae yeast cells (EGY48; CLONTECH) were used in these experiments. Cells were maintained in liquid culture media with the appropriate drop out amino acids. Standard methods for culture and maintenance of the cells were followed. […]
DNA constructs pSH118, CfEcRDEF, and MmRXRA/BCDEF, MmRXRDEF, or […] were transfected into yeast cells. […] A colony from each group of transformants was grown in the liquid culture in the presence of 0, 0.04, 0.2, 1, 5 and 25 μM GS™-E. The reporter activity was measured as described above 4 hours after adding ligand. Total RLUs were calculated and the numbers on the bars of FIG. 16 show maximum fold induction observed for that group (see FIGS. 16 and 17).
The best performing transformed yeast strain from the analysis above comprising CfEcRDEF:MmRXRDEF was used to determine the induction activity of three steroid ligands (20E, PonA, MurA) and four non-steroid ligands (GS™-E, RH2485, RH5992, RH5849) in this yeast-based format. The yeast cells were cultured in the presence of 0, 0.l, 1, 10, 50 and 100 μM ligands for four hours and the reporter activity was measured as described above. Total RLUs were calculated and the numbers on the top of the bars of FIG. 18 show the maximum fold induction for that group (see FIGS. 18 and 19).

[9] = test system: GAL4RXR + VP16CfEcR; experiment: Transactivation of reporter gene through switch 1.3 in 293 cells; assay type: cell-based, Mus musculus; Choristoneura fumiferana; conditions: switch 1.3, pGAL4RELuc
Experimental: as §1, §2, §3

[10] = test system: GAL4EcR + VP16USP; experiment: Transactivation of reporter gene through switch 1.2 in CV1 cells; assay type: cell-based, Choristoneura fumiferana; conditions: switch 1.2, pGAL4RELuc
Experimental: as §4, §1, §5, §6, §3

Chain of DmVgRXR + MmRXR (P28700 whole entry, the tested form may be a part): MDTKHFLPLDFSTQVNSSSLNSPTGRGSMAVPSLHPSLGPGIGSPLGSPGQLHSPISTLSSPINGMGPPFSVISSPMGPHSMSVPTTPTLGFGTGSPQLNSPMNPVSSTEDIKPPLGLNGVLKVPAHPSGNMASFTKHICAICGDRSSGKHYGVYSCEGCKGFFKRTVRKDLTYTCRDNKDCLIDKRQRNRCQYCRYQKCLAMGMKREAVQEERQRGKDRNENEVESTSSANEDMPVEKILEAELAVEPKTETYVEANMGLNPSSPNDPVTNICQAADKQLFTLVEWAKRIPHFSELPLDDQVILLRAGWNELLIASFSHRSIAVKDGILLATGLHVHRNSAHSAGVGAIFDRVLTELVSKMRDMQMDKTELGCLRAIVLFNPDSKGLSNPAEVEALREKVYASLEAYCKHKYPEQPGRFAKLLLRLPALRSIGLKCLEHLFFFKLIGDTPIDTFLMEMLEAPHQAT
Chain of DmVgRXR + MmRXR (P34021 whole entry E282G/G283S/G286V, the tested form may be a part): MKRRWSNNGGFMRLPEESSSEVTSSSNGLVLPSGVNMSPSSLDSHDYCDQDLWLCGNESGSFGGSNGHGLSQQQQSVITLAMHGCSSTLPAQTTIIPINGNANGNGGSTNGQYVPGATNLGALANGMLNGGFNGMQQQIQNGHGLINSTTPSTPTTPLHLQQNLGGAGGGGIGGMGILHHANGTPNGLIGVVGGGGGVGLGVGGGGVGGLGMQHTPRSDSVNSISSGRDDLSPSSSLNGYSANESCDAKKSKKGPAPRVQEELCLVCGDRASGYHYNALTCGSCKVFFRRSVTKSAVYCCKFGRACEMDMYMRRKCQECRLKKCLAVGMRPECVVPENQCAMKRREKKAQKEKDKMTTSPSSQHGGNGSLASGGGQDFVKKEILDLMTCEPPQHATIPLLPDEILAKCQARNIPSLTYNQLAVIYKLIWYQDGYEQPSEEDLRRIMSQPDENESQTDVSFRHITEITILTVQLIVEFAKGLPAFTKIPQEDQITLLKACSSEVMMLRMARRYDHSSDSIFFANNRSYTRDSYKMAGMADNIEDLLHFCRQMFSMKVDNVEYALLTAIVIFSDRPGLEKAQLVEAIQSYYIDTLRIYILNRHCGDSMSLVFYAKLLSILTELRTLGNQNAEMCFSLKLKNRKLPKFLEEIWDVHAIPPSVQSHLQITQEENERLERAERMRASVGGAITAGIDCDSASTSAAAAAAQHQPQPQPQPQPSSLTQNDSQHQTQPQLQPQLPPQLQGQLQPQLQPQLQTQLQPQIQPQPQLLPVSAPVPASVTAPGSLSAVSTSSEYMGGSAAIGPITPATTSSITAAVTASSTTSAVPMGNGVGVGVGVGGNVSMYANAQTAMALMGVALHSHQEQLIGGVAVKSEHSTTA

CCc1c(OC)cccc1C(=O)NN(C(=O)c1cc(C)cc(C)c1)C(C)(C)C [N-(2-ethyl-3-methoxybenzoyl)-N′-(3,5-dimethylbenzoyl)-N′-t-butylhydrazine]
Mean Fold Activation Through N-(2-ethyl-3-methoxybenzoyl)-N′-(3,5-dimethylbenzoyl)-N′-t-butylhydrazine [1]: 12 fold
Mean Fold Activation Through N-(2-ethyl-3-methoxybenzoyl)-N′-(3,5-dimethylbenzoyl)-N′-t-butylhydrazine [2]: 2 fold
Mean Fold Activation with 50 μM N-(2-ethyl-3-methoxybenzoyl)-N′-(3,5-dimethylbenzoyl)-N′-t-butylhydrazine [3]: 2 fold
Mean Fold Activation with 50 μM N-(2-ethyl-3-methoxybenzoyl)-N′-(3,5-dimethylbenzoyl)-N′-t-butylhydrazine [4]: 2 fold
Mean Fold Activation Through N-(2-ethyl-3-methoxybenzoyl)-N′-(3,5-dimethylbenzoyl)-N′-t-butylhydrazine [5]: 1 fold
Mean Fold Activation Through N-(2-ethyl-3-methoxybenzoyl)-N′-(3,5-dimethylbenzoyl)-N′-t-butylhydrazine [6]: 21 fold
Potency as activator of CfEcR compared to DmEcR [7]: more potent activators of CfEcR as compared to Drosophila melanogaster EcR (DmEcR)
Fold induction ([8]; yeast cells, CfEcRDEF/MmRXRDEF, 0–25 μM, 4 hours after adding ligand): approximately 1800 fold
Induction of gene expression (relative performance of ligands) ([8]; yeast strain comprising CfEcRDEF:MmRXRDEF, 0–100 μM ligand for four hours, FIGS. 18 and 19): induce gene expression better than any other ligand tested
Mean Fold Activation Through N-(2-ethyl-3-methoxybenzoyl)-N′-(3,5-dimethylbenzoyl)-N′-t-butylhydrazine [9]: 17 fold
Mean Fold Activation Through N-(2-ethyl-3-methoxybenzoyl)-N′-(3,5-dimethylbenzoyl)-N′-t-butylhydrazine [10]: 2 fold
